According to US11472841B2, “Immunogenic composition” (MENICON CO., LTD., priority 2018, dated 2022):

What was measured:
[1] = system: female BALB/c mice; test: Example 4: blood IgG value (IgG ELISA kit) after three intradermal administrations; type: in vivo; details: in combination with any antigen protein (albumin, casein, lysozyme, papain); day 21
Experimental: (§1) Five-week-old female BALB/c mice (supplied by Charles River) were divided into administration groups of 2 mice and an untreated group of 3 mice. 100 μL of each test sample described in Table 5 was intradermally administered to mice of corresponding groups on days 0, 7, and 14 of the administration. […] The collected blood was incubated at 25° C. for 30 minutes and then preserved overnight at 4° C. to assemble a blood clot, centrifugation was performed at 1,000 to 1,200 × g at 4° C. for 20 minutes, and a supernatant was collected. The blood IgG value of the collected serum was measured using an IgG ELISA kit. The serum was diluted 200,000 times with a dilution buffer attached to the kit. In addition, the back skin including the administration site of the third test sample was collected after collecting blood to prepare a tissue specimen.
The method for preparing the above-described test sample is as follows. That is, an antigen solution was prepared by dissolving an antigen protein in water, and the antigen solution and a 1.5 w/v % peptide composition (peptide compositions A to D described in Table 1) or PuraMatrix™ (which is manufactured by Corning Japan Ltd. and is a self-assembling peptide composition containing 1.0 w/v % of Ac-[…]-CONH2 (SEQ ID No: 18)) were mixed with each other so that the self-assembling peptide concentration became 0.75 w/v % and the antigen protein concentration became 0.25 mg/mL (=0.025 w/v %) to prepare a test sample. In addition, a sample obtained by mixing the above-described antigen solution with physiological saline so that the antigen protein concentration became 0.25 mg/mL was used as a control sample.

[2] = system: female BALB/c mice; test: Example 4: tissue specimen of back skin including administration site; type: in vivo; details: 7 days after the administration, intradermal
Experimental: as §1
The method for preparing the above-described test sample is as follows. […]

[3] = antigen protein; cited from earlier work

Row | remaining of test sample inside the skin [2] | Molecule | immunogenicity (blood IgG) [1] | Isoelectric point [3]
1 | the test sample remained inside the skin | Ac-RLDLRLALRLDLR-NH2 [SEQ ID No: 1] | enhanced | 
2 | the test sample remained inside the skin | Ac-RLDLRLSLRLDLR-NH2 [SEQ ID No: 15] | enhanced | 
3 |  | SEQ ID No: 16 (RLDLRLNLRLDLR; self-assembling peptide) | enhanced | 
4 |  | OVA: Ovalbumin antigen, Wako Pure Chemical Industries (protein, UniProt P01012 2-386, looked up) Ovalbumin: GSIGAASMEFCFDVFKELKVHHANENIFYCPIAIMSALAMVYLGAKDSTRTQINKVVRFDKLPGFGDSIEAQCGTSVNVHSSLRDILNQITKPNDVYSFSLASRLYAEERYPILPEYLQCVKELYRGGLEPINFQTAADQARELINSWVESQTNGIIRNVLQPSSVDSQTAMVLVNAIVFKGLWEKAFKDEDTQAMPFRVTEQESKPVQMMYQIGLFRVASMASEKMKILELPFASGTMSMLVLLPDEVSGLEQLESIINFEKLTEWTSSNVMEERKIKVYLPRMKMEEKYNLTSVLMAMGITDVFSSSANLSGISSAESLKISQAVHAAHAEINEAGREVVGSAEAGVDAASVSEEFRADHPFLFCIKHIATNAVLFFGRCVSP |  | OVA: Ovalbumin (isoelectric point: 4.5, manufactured by Wako Pure Chemical Industries, Ltd., Cat. No.
